Assay results taken from US20260294940A1, “PHOSPHORUS-CONTAINING COMPOUNDS FOR TREATING INFLAMMATORY BOWEL DIESEASE” (VivaVision Biotech, Inc., priority 2022, published 2026).

What was measured:
Assay type in all cases: in vivo, Balb/c mice
IFN-γ = IFN-γ level in oxazolone-induced colitis mice (cytometric bead array); conditions: Day 9, PO BID 5 days, compound A30 1, 5 or 25 mg/kg, tofacitinib 10 mg/kg; for IFN-γ level (intestinal mucosa): FIG. 8; for IFN-γ level (serum): FIG. 10
Method: (§1) Compound A30 was evaluated in an oxazolone-induced colitis murine model, along with tofacitinib. Boirivant et al., J. Exp. Med. 1998, 188, 1929-39. Balb/c mice were randomly divided into 6 groups according to Table 1:4 treatment groups (Treatment Groups), 1 vehicle group (Vehicle Group), and 1 sham group (Sham Group). The mice in Treatment and Vehicle Groups were sensitized with 200 μL of 2% oxazolone in acetone and olive oil (1:4), followed by injection of 100 μL of 1.5% oxazolone into the rectum of each mouse on Day 5 after sensitization. The mice in Sham Group were sensitized with 200 μL of a mixture of acetone and olive oil (1:4) without oxazolone, followed by injection of 100 μL of 50% ethanol/water into the rectum of each mouse on Day 5 after sensitization. Before the injection into the rectum, each mouse was anesthetized intraperitoneally with tribromoethanol (0.3 mL, 1.25%). From Days 4 to 8 after sensitization, the mice in Sham and Vehicle Groups were each given 0.5% CMC-Na by gavage, and the mice in Treatment Groups were each given by gavage tofacitinib or compound A30 in 0.5% CMC-Na, respectively, according to the dosing schedule shown in Table 1.
(§2) On Day 9 after sensitization, each mouse was euthanized and blood was collected from the heart. A serum was prepared and frozen for the determination of inflammatory factors.
(§3) The colon of each mouse was collected and photographed, and the colon length was measured and weighed after the removal of the content of the colon. A part of each colon collected was fixed using the Swiss roll technique in neutral paraformaldehyde for pathological scoring (Table 3) as described in Bialkowska et al., J. Vis. Exp. 2016, 113, e54161. The rest of the colon mucosa of each mouse was scraped and frozen for the determination of inflammatory factors.
(§4) The IFN-γ and TNFα levels were analyzed using a BD™ cytometric bead array (CBA) kit.

TNF-α = TNF-α level in oxazolone-induced colitis mice (cytometric bead array); conditions: Day 9, PO BID 5 days, compound A30 1, 5 or 25 mg/kg, tofacitinib 10 mg/kg; for TNF-α level (intestinal mucosa): FIG. 7; for TNF-α level (serum): FIG. 9
Method: as §1, §2, §3, §4

[1] = system: oxazolone-induced colitis mice; test: Oxazolone-induced acute colitis in mice for ulcerative colitis (bodyweight, DAI, colon weight, length and density); conditions: PO BID 5 days, compound A30 1, 5 or 25 mg/kg, tofacitinib 10 mg/kg; for colon weight / colon length / colon density: Day 9 after sensitization; for colon weight: FIG. 3; for colon length: FIG. 4; for colon density: FIG. 5; for bodyweight change: FIG. 1; for DAI score: FIG. 2
Method: as §1
The bodyweight of each mouse was measured daily. From Day 4 after sensitization, the fecal property and occult blood as determined with a fecal occult blood test (FOBT) of each mouse were measured daily to calculate a disease activity index (DAI) according to Table 2.
as §2, §3
Due to the inflammation, it is expected that the colon of an oxazolone-induced colitis mouse has an […], and increased density.

## C[P@](=O)(CCc1cc(Cl)c(C(=O)N[C@@H](Cc2cccc(S(C)(=O)=O)c2)C(=O)O)c(Cl)c1)c1cccc(O)c1 [compound A30, (S)-2-(2,6-dichloro-4-(2-((S)-(3-hydroxyphenyl)(methyl)phosphoryl)ethyl)benz-amido)-3-(3-(methylsulfonyl)phenyl)propanoic acid]
IFN-γ
  IFN-γ level (intestinal mucosa): lowered
  IFN-γ level (serum): lowered
TNF-α
  TNF-α level (intestinal mucosa): lowered
  TNF-α level (serum): lowered
[1]
  colon weight: able to reverse the disease effects
  colon length: able to reverse the disease effects
  colon density: able to reverse the disease effects
  bodyweight change: slowed the bodyweight loss
  DAI score: improved the DAI score

## C[C@@H]1CCN(C(=O)CC#N)C[C@@H]1N(C)c1ncnc2[nH]ccc12 [tofacitinib]
IFN-γ
  IFN-γ level (intestinal mucosa): lowered
  IFN-γ level (serum): lowered
TNF-α
  TNF-α level (intestinal mucosa): lowered
  TNF-α level (serum): lowered
[1]
  colon weight: able to reverse the disease effects
  colon length: able to reverse the disease effects
  colon density: able to reverse the disease effects
  bodyweight change: slowed the bodyweight loss
  DAI score: improved the DAI score
